# Key:
# Assay type in all cases: biochemical
# Syk = Syk (Homo sapiens, UniProt P43405); assay: Syk IC50 (Table 1; method not given)
# JAK2 = target: T1, JAK2 (Homo sapiens, UniProt O60674); assay: Z'-LYTE kinase assay, JAK2 tyrosine phosphorylation activity
# T1 construct: 5 μl of catalytic domain recombinant Kinase enzyme+Tyr peptide substrate (Invitrogen, Calif.); purchased Invitrogen
# Procedure, shortened: (§1)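 Catalytic-domain recombinant enzymes phosphorylate a coumarin/fluorescein-labelled Tyr6 peptide for 1 h at room temperature in the presence of ATP and compound (1% DMSO). Development Reagent then cleaves non-phosphorylated peptide over 1 h, and emission ratio 445/520 nm (ex 400 nm) gives percent phosphorylation; IC50 by 4-parameter logistic model.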
# TYK2 = target: T2, TYK2 (Homo sapiens, UniProt P29597); assay: Z'-LYTE kinase assay, TYK2 tyrosine phosphorylation activity
# T2 construct: 5 μl of catalytic domain recombinant Kinase enzyme+Tyr peptide substrate (Invitrogen, Calif.); purchased Invitrogen
# T2 sequence (P29597 897-1176 limits assumed): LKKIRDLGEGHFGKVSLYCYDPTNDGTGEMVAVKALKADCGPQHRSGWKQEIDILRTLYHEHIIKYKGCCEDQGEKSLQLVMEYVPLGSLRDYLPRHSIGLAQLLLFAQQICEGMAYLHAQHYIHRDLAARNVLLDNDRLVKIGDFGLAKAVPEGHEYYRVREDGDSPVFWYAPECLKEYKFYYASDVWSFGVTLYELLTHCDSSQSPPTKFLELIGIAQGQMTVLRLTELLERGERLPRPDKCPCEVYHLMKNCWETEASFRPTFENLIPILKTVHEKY
# Procedure, shortened: as §1
# JAK3 = target: T3, JAK3 (Homo sapiens, UniProt P52333); assay: Z'-LYTE kinase assay, JAK3 tyrosine phosphorylation activity
# T3 construct: 5 μl of catalytic domain recombinant Kinase enzyme+Tyr peptide substrate (Invitrogen, Calif.); purchased Invitrogen
# T3 sequence (P52333 822-1111 limits assumed): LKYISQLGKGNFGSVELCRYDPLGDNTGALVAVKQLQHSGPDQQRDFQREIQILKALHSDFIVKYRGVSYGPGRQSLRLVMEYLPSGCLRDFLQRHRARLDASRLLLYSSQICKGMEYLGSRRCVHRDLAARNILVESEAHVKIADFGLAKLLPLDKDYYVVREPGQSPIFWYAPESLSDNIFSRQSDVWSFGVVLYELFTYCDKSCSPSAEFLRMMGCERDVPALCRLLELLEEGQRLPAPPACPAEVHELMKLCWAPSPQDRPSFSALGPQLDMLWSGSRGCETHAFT
# Procedure, shortened: as §1
# JAK1 = target: T4, JAK1 (Homo sapiens, UniProt P23458); assay: Z'-LYTE kinase assay, JAK1 tyrosine phosphorylation activity; conditions: read-out: JAK 1 IC50
# T4 construct: 5 μl of catalytic domain recombinant Kinase enzyme+Tyr peptide substrate (Invitrogen, Calif.); purchased Invitrogen
# T4 sequence (P23458 875-1153 limits assumed): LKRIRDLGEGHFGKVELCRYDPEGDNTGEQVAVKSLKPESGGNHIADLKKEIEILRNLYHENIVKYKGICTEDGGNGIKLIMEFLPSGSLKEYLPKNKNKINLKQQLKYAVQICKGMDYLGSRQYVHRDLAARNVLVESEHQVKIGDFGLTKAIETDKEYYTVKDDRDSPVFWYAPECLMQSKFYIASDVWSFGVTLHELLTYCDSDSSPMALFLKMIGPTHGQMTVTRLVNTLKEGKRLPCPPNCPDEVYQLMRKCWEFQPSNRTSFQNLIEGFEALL
# Procedure, shortened: as §1
# T1 sequence (O60674 849-1124 limits assumed): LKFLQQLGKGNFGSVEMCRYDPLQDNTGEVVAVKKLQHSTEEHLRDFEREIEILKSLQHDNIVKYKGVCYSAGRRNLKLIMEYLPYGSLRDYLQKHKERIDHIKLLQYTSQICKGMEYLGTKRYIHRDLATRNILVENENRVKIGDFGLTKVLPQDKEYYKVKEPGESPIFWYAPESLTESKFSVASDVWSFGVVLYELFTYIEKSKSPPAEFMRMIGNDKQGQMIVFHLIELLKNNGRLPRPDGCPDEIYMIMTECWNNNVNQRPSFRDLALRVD
SMILES,IC50 (Syk) [µM],IC50 (JAK2) [µM],IC50 (TYK2) [µM],IC50 (JAK3) [µM],IC50 (JAK1) [µM]
"NC(=O)c1cnc(Nc2cccc(NC(=O)C3CC3)c2)nc1NCC(F)(F)F [Example 5, 2-(3-(cyclopropanecarboxamido)phenylamino)-4-(2,2,2-trifluoroethylamino)pyrimidine-5-carboxamide]",0.1 to 1,0.1 to 1,0.01 to 0.1,0.01 to 0.1,0.1 to 1
"COCC(=O)Nc1cccc(Nc2ncc(C(N)=O)c(NCC(F)(F)F)n2)c1 [Example 6, 2-(3-(2-methoxyacetamido)phenylamino)-4-(2,2,2-trifluoroethylamino)pyrimidine-5-carboxamide]",0.1 to 1,0.01 to 0.1,0.01 to 0.1,0.01 to 0.1,0.01 to 0.1
"CC(=O)Nc1cccc(Nc2ncc(C(N)=O)c(NCC(F)(F)F)n2)c1 [Example 7, 2-(3-acetamidophenylamino)-4-(2,2,2-trifluoroethylamino)pyrimidine-5-carboxamide]",0.1 to 1,0.01 to 0.1,0.001 to 0.01,0.001 to 0.01,0.01 to 0.1
"NC(=O)c1cnc(Nc2cccc(NC(=O)N3CCCC3)c2)nc1NC1CCCC1 [Example 37, 4-(cyclopentylamino)-2-(3-(pyrrolidine-1-carboxamido)phenylamino)pyrimidine-5-carboxamide]",> 1,0.01 to 0.1,0.001 to 0.01,0.001 to 0.01,0.01 to 0.1
"CC(=O)Nc1cccc(Nc2ncc(C(N)=O)c(NCC(=O)N3CCCC3)n2)c1 [Example 65, 2-(3-acetamidophenylamino)-4-(2-oxo-2-(pyrrolidin-1-yl)ethylamino)pyrimidine-5-carboxamide]",> 1,0.1 to 1,0.01 to 0.1,0.01 to 0.1,> 1
"CC(=O)Nc1cccc(Nc2ncc(C(N)=O)c(N[C@@H]3CCCNC3)n2)c1 [Example 66, (R)-2-(3-acetamidophenylamino)-4-(piperidin-3-ylamino)pyrimidine-5-carboxamide]",> 1,0.1 to 1,0.1 to 1,0.1 to 1,0.1 to 1
"CC(=O)Nc1cccc(Nc2ncc(C(N)=O)c(N[C@H](CO)Cc3ccccc3)n2)c1 [Example 76, (S)-2-(3-acetamidophenylamino)-4-(1-hydroxy-3-phenylpropan-2-ylamino)pyrimidine-5-carboxamide]",> 1,0.01 to 0.1,0.01 to 0.1,0.01 to 0.1,0.1 to 1
"CC(=O)N(C)c1cccc(Nc2ncc(C(N)=O)c(NC(C)C)n2)c1 [Example 77, 4-(isopropylamino)-2-(3-(N-methylacetamido)phenylamino)pyrimidine-5-carboxamide]",> 1,0.01 to 0.1,0.01 to 0.1,0.01 to 0.1,0.1 to 1
"CC(=O)N(C)c1cccc(Nc2ncc(C(N)=O)c(NC3CCCC3)n2)c1 [Example 78, 4-(cyclopentylamino)-2-(3-(N-methylacetamido)phenylamino)pyrimidine-5-carboxamide]",> 1,0.001 to 0.01,0.01 to 0.1,0.001 to 0.01,0.01 to 0.1
"CC(=O)N(C)c1cccc(Nc2ncc(C(N)=O)c(NCc3ccccc3)n2)c1 [Example 79, 4-(benzylamino)-2-(3-(N-methylacetamido)phenylamino)pyrimidine-5-carboxamide]",> 1,0.01 to 0.1,0.01 to 0.1,0.001 to 0.01,0.01 to 0.1
"CC(=O)Nc1cccc(Nc2ncc(C(N)=O)c(NCCN3CCOCC3)n2)c1 [Example 80, 2-(3-acetamidophenylamino)-4-(2-morpholinoethylamino)pyrimidine-5-carboxamide]",> 1,0.1 to 1,0.01 to 0.1,0.01 to 0.1,0.1 to 1
"CC(=O)Nc1cccc(Nc2ncc(C(N)=O)c(NC[C@H](C)c3ccccc3)n2)c1 [Example 81, (R)-2-(3-acetamidophenylamino)-4-(2-phenylpropylamino)pyrimidine-5-carboxamide]",> 1,0.01 to 0.1,0.01 to 0.1,0.01 to 0.1,0.1 to 1
"CC(=O)Nc1cccc(Nc2ncc(C(N)=O)c(NC[C@H](C)O)n2)c1 [Example 82, (S)-2-(3-acetamidophenylamino)-4-(2-hydroxypropylamino)pyrimidine-5-carboxamide]",0.1 to 1,0.01 to 0.1,0.01 to 0.1,0.01 to 0.1,0.1 to 1
"CC(=O)Nc1cccc(Nc2ncc(C(N)=O)c(NC[C@@H](O)CO)n2)c1 [Example 83, (R)-2-(3-acetamidophenylamino)-4-(2,3-dihydroxypropylamino)pyrimidine-5-carboxamide]",> 1,0.1 to 1,0.01 to 0.1,0.01 to 0.1,0.1 to 1
"COC(CNc1nc(Nc2cccc(NC(C)=O)c2)ncc1C(N)=O)c1ccccc1 (stereo not drawn) [Example 84, 2-(3-acetamidophenylamino)-4-(2-methoxy-2-phenylethylamino)pyrimidine-5-carboxamide]",0.1 to 1,0.01 to 0.1,0.01 to 0.1,0.001 to 0.01,0.01 to 0.1
"CC(=O)Nc1cccc(Nc2ncc(C(N)=O)c(N[C@@H](C)C(N)=O)n2)c1 [Example 85, (S)-2-(3-acetamidophenylamino)-4-(1-amino-1-oxopropan-2-ylamino)pyrimidine-5-carboxamide]",> 1,0.1 to 1,0.01 to 0.1,0.01 to 0.1,0.1 to 1
"COCC(=O)N(C)c1cccc(Nc2ncc(C(N)=O)c(N[C@H](C)c3ccccc3)n2)c1 [Example 86, (R)-2-(3-(2-methoxy-N-methylacetamido)phenylamino)-4-(1-phenylethylamino)pyrimidine-5-carboxamide]",> 1,0.001 to 0.01,0.01 to 0.1,0.001 to 0.01,0.1 to 1
"CC(=O)N(C)c1cccc(Nc2ncc(C(N)=O)c(N[C@H](C)c3ccccc3)n2)c1 [Example 87, (R)-2-(3-(N-methylacetamido)phenylamino)-4-(1-phenylethylamino)pyrimidine-5-carboxamide]",> 1,0.001 to 0.01,0.01 to 0.1,0.001 to 0.01,0.1 to 1
"COCC(=O)N(C)c1cccc(Nc2ncc(C(N)=O)c(NC(C)C)n2)c1 [Example 88, 4-(isopropylamino)-2-(3-(2-methoxy-N-methylacetamido)phenylamino)pyrimidine-5-carboxamide]",> 1,0.01 to 0.1,0.01 to 0.1,0.01 to 0.1,0.01 to 0.1
"COCC(=O)N(C)c1cccc(Nc2ncc(C(N)=O)c(NC3CCCC3)n2)c1 [Example 89, 4-(cyclopentylamino)-2-(3-(2-methoxy-N-methylacetamido)phenylamino)pyrimidine-5-carboxamide]",> 1,0.001 to 0.01,0.01 to 0.1,0.001 to 0.01,0.01 to 0.1
"COCC(=O)N(C)c1cccc(Nc2ncc(C(N)=O)c(NCc3ccccc3)n2)c1 [Example 90, 4-(benzylamino)-2-(3-(2-methoxy-N-methylacetamido)phenylamino)pyrimidine-5-carboxamide]",> 1,0.01 to 0.1,0.01 to 0.1,0.001 to 0.01,0.01 to 0.1

# — US8853230B2, “Inhibitors of JAK” (Portola Pharmaceuticals, Inc., priority 2009, dated 2014)
